Source: ChEMBL document CHEMBL4052667 (Bioorg Med Chem, 2017)
pIC50: −log10 of the molar value.

Legend:
[1] = tested on: HCC827; experiment: Antiproliferative activity against human HCC827 cells after 72 hrs by MTT assay; assay type: functional, cell-based; details: HCC827, 72 h
[2] = tested on: MDA-MB-231; experiment: Antiproliferative activity against human MDA-MB-231 cells after 72 hrs by MTT assay; assay type: functional, cell-based; details: MDA-MB-231, 72 h
[3] = tested on: MCF-10A; experiment: Antiproliferative activity against human MCF10A cells after 72 hrs by MTT assay; assay type: cell-based
[4] = biological target: Histone deacetylase 1 (Homo sapiens, UniProt Q13547); experiment: Inhibition of HDAC1 (unknown origin) using acetylated peptide substrate preincubated for 15 mins followed by substrate addition measured after 60 mins by fluorescence analysis
Sequence of Histone deacetylase 1 (Q13547 whole entry): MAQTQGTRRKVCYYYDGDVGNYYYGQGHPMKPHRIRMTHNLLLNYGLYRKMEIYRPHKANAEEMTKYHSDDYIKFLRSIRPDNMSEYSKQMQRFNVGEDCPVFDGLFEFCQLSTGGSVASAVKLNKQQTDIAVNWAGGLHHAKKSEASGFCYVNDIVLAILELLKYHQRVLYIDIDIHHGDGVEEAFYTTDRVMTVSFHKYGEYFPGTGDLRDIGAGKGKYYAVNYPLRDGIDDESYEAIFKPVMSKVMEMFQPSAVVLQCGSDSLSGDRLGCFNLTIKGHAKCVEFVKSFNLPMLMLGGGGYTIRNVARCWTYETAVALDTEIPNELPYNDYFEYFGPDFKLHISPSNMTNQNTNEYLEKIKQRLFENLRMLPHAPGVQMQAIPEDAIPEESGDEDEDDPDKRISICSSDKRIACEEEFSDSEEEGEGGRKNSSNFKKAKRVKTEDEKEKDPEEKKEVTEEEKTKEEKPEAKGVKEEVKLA

[5] = tested on: K562; experiment: Antiproliferative activity against human K562 cells after 72 hrs by MTT assay; assay type: functional, cell-based; details: K562, 72 h
[6] = tested on: MCF7; experiment: Antiproliferative activity against human MCF7 cells after 72 hrs by MTT assay; assay type: functional, cell-based; details: MCF7, 72 h
[7] = Antiproliferative activity against human MCF10A cells at less than 50 uM after 72 hrs by MTT assay relative to control; assay type: cell-based, MCF-10A
[8] = tested on: MDA-MB-231; experiment: Antiproliferative activity against human MDA-MB-231 cells after 5 days by MTT assay; assay type: functional, cell-based; details: MDA-MB-231, 120 h
[9] = biological target: Poly [ADP-ribose] polymerase 2 (Homo sapiens, UniProt Q9UGN5); experiment: Inhibition of recombinant human N-terminal GST-tagged PARP2 (2 to 583 residues) expressed in baculovirus infected Sf9 cells using biotinylated substrate after 1 hr by UV/Vis spectrophotometric analysis
Sequence of Poly [ADP-ribose] polymerase 2 (Q9UGN5 whole entry, the tested form may be a part): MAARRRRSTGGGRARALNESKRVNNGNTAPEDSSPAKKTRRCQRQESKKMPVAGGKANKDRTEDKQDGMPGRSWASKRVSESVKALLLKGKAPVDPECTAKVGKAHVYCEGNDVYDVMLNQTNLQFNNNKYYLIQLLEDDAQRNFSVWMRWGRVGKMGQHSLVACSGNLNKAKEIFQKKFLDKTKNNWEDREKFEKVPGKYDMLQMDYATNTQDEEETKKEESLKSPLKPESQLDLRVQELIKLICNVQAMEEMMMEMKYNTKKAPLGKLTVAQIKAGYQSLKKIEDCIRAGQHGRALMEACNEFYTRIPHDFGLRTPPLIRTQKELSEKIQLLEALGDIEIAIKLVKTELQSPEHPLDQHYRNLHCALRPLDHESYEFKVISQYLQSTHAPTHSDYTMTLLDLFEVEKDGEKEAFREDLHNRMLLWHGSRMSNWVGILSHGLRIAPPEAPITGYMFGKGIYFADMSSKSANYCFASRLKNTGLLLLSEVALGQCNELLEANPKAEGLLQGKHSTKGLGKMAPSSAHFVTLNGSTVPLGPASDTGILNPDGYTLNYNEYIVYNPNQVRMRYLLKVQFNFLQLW

[10] = species: Homo sapiens; experiment: Selectivity ratio of IC50 for HDAC1 (unknown origin) to IC50 for HDAC6 (unknown origin)
[11] = tested on: HeLa; experiment: Antiproliferative activity against human HeLa cells after 72 hrs by MTT assay; assay type: functional, cell-based
[12] = biological target: T1, Protein deacetylase HDAC6 (Homo sapiens, UniProt Q9UBN7); experiment: Inhibition of HDAC6 (unknown origin) using acetylated peptide substrate preincubated for 15 mins followed by substrate addition measured after 60 mins by fluorescence analysis
T1 sequence (Q9UBN7 whole entry): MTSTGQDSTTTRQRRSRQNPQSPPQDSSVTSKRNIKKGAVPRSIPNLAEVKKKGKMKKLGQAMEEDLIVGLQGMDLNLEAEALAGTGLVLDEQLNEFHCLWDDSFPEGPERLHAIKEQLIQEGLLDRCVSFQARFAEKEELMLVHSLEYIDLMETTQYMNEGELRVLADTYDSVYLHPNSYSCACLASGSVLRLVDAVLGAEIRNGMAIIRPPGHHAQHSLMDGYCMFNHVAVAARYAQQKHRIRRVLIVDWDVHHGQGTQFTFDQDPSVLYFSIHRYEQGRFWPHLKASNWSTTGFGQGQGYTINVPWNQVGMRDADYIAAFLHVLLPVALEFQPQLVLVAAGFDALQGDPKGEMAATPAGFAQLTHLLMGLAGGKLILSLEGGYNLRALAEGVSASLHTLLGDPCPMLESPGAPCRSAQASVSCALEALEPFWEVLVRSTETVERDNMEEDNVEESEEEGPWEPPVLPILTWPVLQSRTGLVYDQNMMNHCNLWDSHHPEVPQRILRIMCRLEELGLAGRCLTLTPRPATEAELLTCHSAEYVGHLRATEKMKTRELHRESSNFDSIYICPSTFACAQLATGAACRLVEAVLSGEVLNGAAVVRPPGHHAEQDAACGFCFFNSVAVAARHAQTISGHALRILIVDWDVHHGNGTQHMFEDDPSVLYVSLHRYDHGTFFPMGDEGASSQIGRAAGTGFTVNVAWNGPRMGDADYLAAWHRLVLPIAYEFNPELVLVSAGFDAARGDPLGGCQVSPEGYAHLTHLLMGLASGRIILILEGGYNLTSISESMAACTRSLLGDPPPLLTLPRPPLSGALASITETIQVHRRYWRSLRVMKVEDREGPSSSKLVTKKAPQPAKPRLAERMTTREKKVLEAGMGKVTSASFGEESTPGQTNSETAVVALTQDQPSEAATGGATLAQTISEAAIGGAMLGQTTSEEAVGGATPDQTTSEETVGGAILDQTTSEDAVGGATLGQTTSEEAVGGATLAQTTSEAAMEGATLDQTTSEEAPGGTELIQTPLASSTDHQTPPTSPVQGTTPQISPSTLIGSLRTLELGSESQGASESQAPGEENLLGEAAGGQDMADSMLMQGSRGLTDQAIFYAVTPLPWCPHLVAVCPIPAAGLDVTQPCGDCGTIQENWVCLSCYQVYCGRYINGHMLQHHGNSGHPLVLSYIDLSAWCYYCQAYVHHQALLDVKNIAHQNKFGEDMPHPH

[13] = tested on: U-937; experiment: Antiproliferative activity against human U937 cells after 72 hrs by MTT assay; assay type: functional, cell-based; details: U-937, 72 h
[14] = tested on: T47D; experiment: Antiproliferative activity against human T47D cells after 72 hrs by MTT assay; assay type: functional, cell-based
[15] = biological target: Poly [ADP-ribose] polymerase 1 (Homo sapiens, UniProt P09874); experiment: Inhibition of recombinant full length human N-terminal GST-tagged PARP1 expressed in baculovirus infected Sf9 cells using biotinylated substrate after 1 hr by UV/Vis spectrophotometric analysis
Sequence of Poly [ADP-ribose] polymerase 1 (P09874 whole entry): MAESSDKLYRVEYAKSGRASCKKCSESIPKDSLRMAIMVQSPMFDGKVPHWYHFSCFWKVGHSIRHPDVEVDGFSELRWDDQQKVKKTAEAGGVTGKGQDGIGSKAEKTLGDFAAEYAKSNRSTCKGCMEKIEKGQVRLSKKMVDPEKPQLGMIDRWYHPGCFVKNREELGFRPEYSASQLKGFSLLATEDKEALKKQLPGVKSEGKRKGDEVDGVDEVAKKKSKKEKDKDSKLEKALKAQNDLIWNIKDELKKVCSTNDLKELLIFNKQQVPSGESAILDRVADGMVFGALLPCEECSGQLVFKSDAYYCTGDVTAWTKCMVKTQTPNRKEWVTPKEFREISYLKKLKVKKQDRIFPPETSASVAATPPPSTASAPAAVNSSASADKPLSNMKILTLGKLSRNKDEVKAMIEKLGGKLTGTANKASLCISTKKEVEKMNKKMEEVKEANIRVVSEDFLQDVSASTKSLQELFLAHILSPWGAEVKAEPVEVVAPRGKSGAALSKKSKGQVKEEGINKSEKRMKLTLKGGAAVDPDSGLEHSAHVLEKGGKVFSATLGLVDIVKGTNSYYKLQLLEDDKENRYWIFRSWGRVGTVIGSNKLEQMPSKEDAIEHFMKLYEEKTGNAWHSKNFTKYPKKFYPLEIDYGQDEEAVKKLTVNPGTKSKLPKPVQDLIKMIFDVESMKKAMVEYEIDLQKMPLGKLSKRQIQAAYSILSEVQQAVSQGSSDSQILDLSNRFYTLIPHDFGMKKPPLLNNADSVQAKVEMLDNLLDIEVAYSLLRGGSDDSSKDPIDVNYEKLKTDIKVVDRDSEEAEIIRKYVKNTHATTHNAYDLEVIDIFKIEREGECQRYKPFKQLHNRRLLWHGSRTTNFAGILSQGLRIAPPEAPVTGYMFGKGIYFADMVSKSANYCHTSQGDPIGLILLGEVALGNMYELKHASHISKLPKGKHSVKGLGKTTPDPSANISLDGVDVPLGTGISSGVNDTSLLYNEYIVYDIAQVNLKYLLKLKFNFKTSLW

[16] = tested on: MDA-MB-231; experiment: Induction of apoptosis in human MDA-MB-231 cells assessed as early apoptotic cells at 10 uM after 48 hrs by Annexin V-FITC/propidium iodide staining based flow cytometry (reference value: 1.27%); assay type: functional
[17] = tested on: MDA-MB-231; experiment: Induction of apoptosis in human MDA-MB-231 cells assessed as early apoptotic cells at 5 uM after 48 hrs by Annexin V-FITC/propidium iodide staining based flow cytometry (reference value: 1.27%); assay type: functional
[18] = tested on: MDA-MB-231; experiment: Induction of apoptosis in human MDA-MB-231 cells assessed as viable cells at 5 uM after 48 hrs by Annexin V-FITC/propidium iodide staining based flow cytometry (reference value: 94.9%); assay type: functional; details: MDA-MB-231, 48 h, read-out: Activity
[19] = tested on: MDA-MB-231; experiment: Induction of apoptosis in human MDA-MB-231 cells assessed as late apoptotic cells at 5 uM after 48 hrs by Annexin V-FITC/propidium iodide staining based flow cytometry (reference value: 3.82%); assay type: functional
[20] = tested on: HCC1937; experiment: Antiproliferative activity against human HCC1937 cells after 3 days by MTT assay; assay type: functional, cell-based; details: HCC1937, 72 h
[21] = tested on: MDA-MB-231; experiment: Induction of apoptosis in human MDA-MB-231 cells assessed as late apoptotic cells at 10 uM after 48 hrs by Annexin V-FITC/propidium iodide staining based flow cytometry (reference value: 3.82%); assay type: functional
[22] = tested on: MDA-MB-231; experiment: Induction of apoptosis in human MDA-MB-231 cells assessed as early apoptotic cells at 2.5 uM after 48 hrs by Annexin V-FITC/propidium iodide staining based flow cytometry (reference value: 1.27%); assay type: functional
[23] = tested on: MDA-MB-231; experiment: Induction of apoptosis in human MDA-MB-231 cells assessed as viable cells at 2.5 uM after 48 hrs by Annexin V-FITC/propidium iodide staining based flow cytometry (reference value: 94.9%); assay type: functional; details: MDA-MB-231, 48 h, read-out: Activity
[24] = tested on: MDA-MB-231; experiment: Induction of apoptosis in human MDA-MB-231 cells after 48 hrs by Annexin V-FITC/propidium iodide staining based flow cytometry; assay type: functional, cell-based
[25] = tested on: MDA-MB-231; experiment: Induction of apoptosis in human MDA-MB-231 cells assessed as necrotic cells at 10 uM after 48 hrs by Annexin V-FITC/propidium iodide staining based flow cytometry (reference value: 0.024%); assay type: functional
[26] = Safety index, ratio of compound IC50 to SAHA IC50 for human MCF10A cells; assay type: ADME, cell-based, MCF-10A; details: read-out: Ratio IC50
[27] = tested on: Raji; experiment: Potency index, ratio of SAHA IC50 to compound IC50 for human Raji cells; assay type: functional
[28] = tested on: MDA-MB-231; experiment: Induction of apoptosis in human MDA-MB-231 cells assessed as late apoptotic cells at 2.5 uM after 48 hrs by Annexin V-FITC/propidium iodide staining based flow cytometry (reference value: 3.82%); assay type: functional
[29] = tested on: MDA-MB-231; experiment: Induction of apoptosis in human MDA-MB-231 cells assessed as necrotic cells at 2.5 uM after 48 hrs by Annexin V-FITC/propidium iodide staining based flow cytometry (reference value: 0.024%); assay type: functional
[30] = tested on: MDA-MB-231; experiment: Induction of apoptosis in human MDA-MB-231 cells assessed as viable cells at 10 uM after 48 hrs by Annexin V-FITC/propidium iodide staining based flow cytometry (reference value: 94.9%); assay type: functional; details: MDA-MB-231, 48 h, read-out: Activity
[31] = tested on: MDA-MB-231; experiment: Induction of apoptosis in human MDA-MB-231 cells assessed as necrotic cells at 5 uM after 48 hrs by Annexin V-FITC/propidium iodide staining based flow cytometry (reference value: 0.024%); assay type: functional
[32] = tested on: Raji; experiment: Antiproliferative activity against human Raji cells after 3 days by MTT assay; assay type: functional, cell-based; details: 72 h

Compound	pIC50 [1]	pIC50 [2]	pIC50 [3]	pIC50 [4]	pIC50 [5]	pIC50 [6]	inhibition at 72 h [7]	pIC50 [8]	pIC50 [9]	pIC50 [11]	pIC50 [12]	pIC50 [13]	pIC50 [14]	pIC50 [15]	pIC50 [20]	pIC50 [32]	other results
O=C(NO)c1ccc(CN2CCN(C(=O)c3cc(Cc4n[nH]c(=O)c5ccccc45)ccc3F)CC2)cc1	4.62	4.48	< 4.30	6.30	4.36	4.62	20 to 30%	4.74	7.50	< 4.30	7.78	4.69	< 4.30	8.21			Ratio IC50 [10]: 30
O=C(/C=C/c1ccc(CN2CCN(C(=O)c3cc(Cc4n[nH]c(=O)c5ccccc45)ccc3F)CC2)cc1)NO	5.53	5.57	4.76	7.42	5.12	5.09		6.03	8.60	5.19	7.99	5.41	5.31	7.82	6.35	6.09	Activity [16]: 35.2%; Activity [17]: 11.9%; viability at 5 µM [18]: 80.2%; Activity [19]: 7.2%; Activity [21]: 40.8%; Activity [22]: 6.01%; viability at 2.5 µM [23]: 88.1%; Activity [24]: Dose-dependent effect; Activity [25]: 1.77%; selectivity ratio [26]: 8.2; Ratio IC50 [27]: 12; Activity [28]: 5.56%; Activity [29]: 0.34%; viability at 10 µM [30]: 22.3%; Activity [31]: 0.634%
O=C(CCCCCCC(=O)Nc1ccccc1)NO [VORINOSTAT]			5.68														
O=C(Cc1ccc(CN2CCN(C(=O)c3cc(Cc4n[nH]c(=O)c5ccccc45)ccc3F)CC2)cc1)NO	4.49	4.24	< 4.30	6.04	< 4.30	4.38	20 to 30%	4.45	7.31	< 4.30	6.89	4.51	< 4.30	7.69			
O=C(c1cc(Cc2n[nH]c(=O)c3ccccc23)ccc1F)N1CCN(C(=O)C2CC2)CC1 [OLAPARIB]	< 4.30	4.40	< 4.30		< 4.30	4.45		5.10		< 4.30		4.66	< 4.30		5.06	< 4.30	
